Test results taken from patent US20240383915A1, “OXAZEPINE COMPOUNDS AND USES THEREOF IN THE TREATMENT OF CANCER” (Genentech, Inc., priority 2021, published 2024).

Key:
[1] = tested on: PC-9 cells; test: PC9 proliferation assay; format: cell-based, human; conditions: Homo sapiens, PC-9, PC9; read-out: PC9 Prolif IC50 (G12V)
[2] = target: KRas(G12V) (Homo sapiens (Human), UniProt P01116, G12V); test: KRas(G12V) GDP HTRF (BODIPY-GDP exchange TR-FRET); format: biochemical
[3] = target: KRas (Homo sapiens (Human), UniProt P01116); test: KRas GDP HTRF (BODIPY-GDP exchange TR-FRET); format: biochemical
Procedure, shortened: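 Inhibition of SOS1-mediated exchange of BODIPY-GDP on KRAS G12D, started with 3 nM recombinant human SOS1 and 300 nM BODIPY-GDP and read after 60 min. TR-FRET excitation 337 nm, ratio 520/490 nm ×10,000. IC50 from 4-parameter Hill fit of normalized data.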

[4] = tested on: SW480 cells; test: SW480 proliferation assay; format: cell-based; conditions: Homo sapiens, SW480, SW480; read-out: SW480 Prolif IC50 (G12V)

Chain of KRas(G12V) (P01116-2 other isoform, or with tags, fused parts or gaps G12V): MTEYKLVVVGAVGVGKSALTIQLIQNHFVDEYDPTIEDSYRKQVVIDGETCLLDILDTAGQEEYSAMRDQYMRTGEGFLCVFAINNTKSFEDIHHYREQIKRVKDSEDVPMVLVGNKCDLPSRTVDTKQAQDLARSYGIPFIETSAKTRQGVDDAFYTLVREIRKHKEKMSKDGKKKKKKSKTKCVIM
Chain of KRas (P01116-2 other isoform, or with tags, fused parts or gaps): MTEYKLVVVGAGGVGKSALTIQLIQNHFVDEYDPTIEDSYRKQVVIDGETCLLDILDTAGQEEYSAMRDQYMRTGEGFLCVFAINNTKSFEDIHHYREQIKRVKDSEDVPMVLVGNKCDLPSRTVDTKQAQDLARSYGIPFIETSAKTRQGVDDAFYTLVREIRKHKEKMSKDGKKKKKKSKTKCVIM

IC50 [1] [nM] | IC50 [2] [nM] | IC50 [3] [nM] | IC50 [4] [nM] | SMILES
1800 | 0.07 | 0.0648 | 37 | Cc1cc(N)nc(-c2c(Cl)c3c4c(nc(OC[C@@H]5C[C@@H]6C[N@@]5CCO6)nc4c2F)N([C@H](C)c2cccnc2N)CCO3)c1C(F)(F)F (atropisomer, axis not shown) [Example 92a, 6-((R)-2-(((1R,5R,7S)-4-oxa-1-azabicyclo[3.2.1]octan-7-yl)methoxy)-4-((R)-1-(2-aminopyridin-3-yl)ethyl)-8-chloro-10-fluoro-5,6-dihydro-4H-[1,4]oxazepino[5,6,7-de]quinazolin-9-yl)-4-methyl-5-(trifluoromethyl)pyridin-2-amine]
6000 | 0.31 | 1.89 | 700 | Cc1cc(N)nc(-c2c(Cl)c3c4c(nc(OC[C@H]5C[C@@H]6C[N@@]5CCO6)nc4c2F)N([C@H](C)c2cccnc2N)CCO3)c1C(F)(F)F (atropisomer, axis not shown) [Example 92b, 6-((R)-2-(((1R,5R,7R)-4-oxa-1-azabicyclo[3.2.1]octan-7-yl)methoxy)-4-((R)-1-(2-aminopyridin-3-yl)ethyl)-8-chloro-10-fluoro-5,6-dihydro-4H-[1,4]oxazepino[5,6,7-de]quinazolin-9-yl)-4-methyl-5-(trifluoromethyl)pyridin-2-amine]
970 | 0.13 | 0.14 | 9.4 | Cc1cc(N)nc(-c2c(Cl)c3c4c(nc(OC[C@@H]5C[C@@H](F)CN5C)nc4c2F)N([C@H](C)c2cccnc2N)CCO3)c1C(F)(F)F (atropisomer, axis not shown) [Example 106, 6-((R)-4-((R)-1-(2-aminopyridin-3-yl)ethyl)-8-chloro-10-fluoro-2-(((2S,4R)-4-fluoro-1-methylpyrrolidin-2-yl)methoxy)-5,6-dihydro-4H-[1,4]oxazepino[5,6,7-de]quinazolin-9-yl)-4-methyl-5-(trifluoromethyl)pyridin-2-amine]
13000 | 0.18 | 0.222 | 2.8 | Cc1cc(N)nc(-c2c(Cl)c3c4c(nc(OC[C@@H]5CCN5CC(F)F)nc4c2F)N([C@H](C)c2cccnc2N)CCO3)c1C(F)(F)F (atropisomer, axis not shown) [Example 109, 6-((R)-4-((R)-1-(2-aminopyridin-3-yl)ethyl)-8-chloro-2-(((S)-1-(2,2-difluoroethyl)azetidin-2-yl)methoxy)-10-fluoro-5,6-dihydro-4H-[1,4]oxazepino[5,6,7-de]quinazolin-9-yl)-4-methyl-5-(trifluoromethyl)pyridin-2-amine]
7400 | 0.36 | 0.85 | 1.8 | Cc1cc(N)nc(-c2c(Cl)c3c4c(nc(OC[C@@]56CCCN5C[C@]5(CC5(F)F)C6)nc4c2F)N([C@H](C)c2cccnc2N)CCO3)c1C(F)(F)F (atropisomer, axis not shown) [Example 111a, 6-((R)-4-((R)-1-(2-aminopyridin-3-yl)ethyl)-8-chloro-2-(((1R,7a′S)-2,2-difluorodihydro-1′H,3′H-spiro[cyclopropane-1,2′-pyrrolizin]-7a′(5′H)-yl)methoxy)-10-fluoro-5,6-dihydro-4H-[1,4]oxazepino[5,6,7-de]quinazolin-9-yl)-4-methyl-5-(trifluoromethyl)pyridin-2-amine]
4300 | 0.2 | 0.32 | 1.8 | Cc1cc(N)nc(-c2c(Cl)c3c4c(nc(OC[C@@H]5CC(F)(F)CN5C)nc4c2F)N([C@H](C)c2cccnc2N)CCO3)c1C(F)(F)F (atropisomer, axis not shown) [Example 112, 6-((R)-4-((R)-1-(2-aminopyridin-3-yl)ethyl)-8-chloro-2-(((S)-4,4-difluoro-1-methylpyrrolidin-2-yl)methoxy)-10-fluoro-5,6-dihydro-4H-[1,4]oxazepino[5,6,7-de]quinazolin-9-yl)-4-methyl-5-(trifluoromethyl)pyridin-2-amine]
7000 | 0.24 | 0.39 | 3.2 | Cc1cc(N)nc(-c2c(Cl)c3c4c(nc(OC[C@@]56CCN5CC(F)(F)C6)nc4c2F)N([C@H](C)c2cccnc2N)CCO3)c1C(F)(F)F (atropisomer, axis not shown) [Example 114a, 6-((R)-4-((R)-1-(2-aminopyridin-3-yl)ethyl)-8-chloro-2-(((S)-3,3-difluoro-1-azabicyclo[3.2.0]heptan-5-yl)methoxy)-10-fluoro-5,6-dihydro-4H-[1,4]oxazepino[5,6,7-de]quinazolin-9-yl)-4-methyl-5-(trifluoromethyl)pyridin-2-amine]
7600 | 0.22 | 0.46 | 3 | Cc1cc(N)nc(-c2c(Cl)c3c4c(nc(OC[C@]56CCN5CC(F)(F)C6)nc4c2F)N([C@H](C)c2cccnc2N)CCO3)c1C(F)(F)F (atropisomer, axis not shown) [Example 114b, 6-((R)-4-((R)-1-(2-aminopyridin-3-yl)ethyl)-8-chloro-2-(((R)-3,3-difluoro-1-azabicyclo[3.2.0]heptan-5-yl)methoxy)-10-fluoro-5,6-dihydro-4H-[1,4]oxazepino[5,6,7-de]quinazolin-9-yl)-4-methyl-5-(trifluoromethyl)pyridin-2-amine]
15000 | 0.47 | 0.9 | 16 | Cc1cc(N)nc(-c2c(Cl)c3c4c(nc(OC[C@@H]5CCCN5CC(F)F)nc4c2F)N([C@H](C)c2cccnc2N)CCO3)c1C(F)(F)F (atropisomer, axis not shown) [Example 115, 6-((R)-4-((R)-1-(2-aminopyridin-3-yl)ethyl)-8-chloro-2-(((S)-1-(2,2-difluoroethyl)pyrrolidin-2-yl)methoxy)-10-fluoro-5,6-dihydro-4H-[1,4]oxazepino[5,6,7-de]quinazolin-9-yl)-4-methyl-5-(trifluoromethyl)pyridin-2-amine]
1600 | 0.074 | 0.0519 | 4.6 | C=C1CN2CCC[C@@]2(COc2nc3c4c(c(Cl)c(-c5nc(N)cc(C)c5C(F)(F)F)c(F)c4n2)OCCN3[C@H](C)c2cccnc2N)C1 (atropisomer, axis not shown) [Example 116, 6-((R)-4-((R)-1-(2-aminopyridin-3-yl)ethyl)-8-chloro-10-fluoro-2-(((S)-2-methylenetetrahydro-1H-pyrrolizin-7a(5H)-yl)methoxy)-5,6-dihydro-4H-[1,4]oxazepino[5,6,7-de]quinazolin-9-yl)-4-methyl-5-(trifluoromethyl)pyridin-2-amine]
6300 | 0.08 | 0.18 | 12 | Cc1cc(N)nc(-c2c(Cl)c3c4c(nc(OC[C@@H]5CCCN5C5COC5)nc4c2F)N([C@H](C)c2cccnc2N)CCO3)c1C(F)(F)F (atropisomer, axis not shown) [Example 117, 6-((R)-4-((R)-1-(2-aminopyridin-3-yl)ethyl)-8-chloro-10-fluoro-2-(((S)-1-(oxetan-3-yl)pyrrolidin-2-yl)methoxy)-5,6-dihydro-4H-[1,4]oxazepino[5,6,7-de]quinazolin-9-yl)-4-methyl-5-(trifluoromethyl)pyridin-2-amine]
4900 | 0.07 | 0.437 | 1100 | Cc1cc(N)nc(-c2c(Cl)c3c4c(nc(OC[C@@H]5CCC(=O)N5)nc4c2F)N([C@H](C)c2cccnc2N)CCO3)c1C(F)(F)F (atropisomer, axis not shown) [Example 121, (S)-5-((((R)-9-(6-amino-4-methyl-3-(trifluoromethyl)pyridin-2-yl)-4-((R)-1-(2-aminopyridin-3-yl)ethyl)-8-chloro-10-fluoro-5,6-dihydro-4H-[1,4]oxazepino[5,6,7-de]quinazolin-2-yl)oxy)methyl)pyrrolidin-2-one]
2900 | 0.5 | 4.49 | 180 | Cc1cc(N)nc(-c2c(Cl)c3c4c(nc(OC[C@]5(C)CC(F)(F)CN5C)nc4c2F)N([C@H](C)c2cccnc2N)CCO3)c1C(F)(F)F (atropisomer, axis not shown) [Example 122a, 6-((R)-4-((R)-1-(2-aminopyridin-3-yl)ethyl)-8-chloro-2-(((S)-4,4-difluoro-1,2-dimethylpyrrolidin-2-yl)methoxy)-10-fluoro-5,6-dihydro-4H-[1,4]oxazepino[5,6,7-de]quinazolin-9-yl)-4-methyl-5-(trifluoromethyl)pyridin-2-amine]
9400 | 0.095 | 0.202 | 17 | Cc1cc(N)nc(-c2c(Cl)c3c4c(nc(OC[C@@]5(C)CC(F)(F)CN5C)nc4c2F)N([C@H](C)c2cccnc2N)CCO3)c1C(F)(F)F (atropisomer, axis not shown) [Example 122b, 6-((R)-4-((R)-1-(2-aminopyridin-3-yl)ethyl)-8-chloro-2-(((R)-4,4-difluoro-1,2-dimethylpyrrolidin-2-yl)methoxy)-10-fluoro-5,6-dihydro-4H-[1,4]oxazepino[5,6,7-de]quinazolin-9-yl)-4-methyl-5-(trifluoromethyl)pyridin-2-amine]
2700 | 0.1 | 0.204 | 70 | Cc1cc(N)nc(-c2c(Cl)c3c4c(nc(OC[C@H]5CN(C)CCO5)nc4c2F)N([C@H](C)c2cccnc2N)CCO3)c1C(F)(F)F (atropisomer, axis not shown) [Example 124, 6-((R)-4-((R)-1-(2-aminopyridin-3-yl)ethyl)-8-chloro-10-fluoro-2-(((R)-4-methylmorpholin-2-yl)methoxy)-5,6-dihydro-4H-[1,4]oxazepino[5,6,7-de]quinazolin-9-yl)-4-methyl-5-(trifluoromethyl)pyridin-2-amine]
